Results from patent US6521641B1, “Male anti-fertility agents” (Allergan, Inc., priority 1998, dated 2003).
Like-named read-outs stand apart in the source and are kept apart here.

What was measured:
[1] = Toxicokinetics of oral AGN 194310 in rats (drug in blood by GC/MS); assay type: in vivo, rat; conditions: for Tmax / Cmax / AUC(0-t): both sexes, Sprague-Dawley, rat, whole blood; for Tmax: Day 22; for Cmax / AUC(0-t): po; for Cmax: N = 8; for AUC(0-t): N = 8, read-out: AUC24 hr
Protocol: The concentration of drug in the blood was determined from blood drawn from the retro-orbital sinus of the right eye on Day 7 of the study as follows: for rats in groups 7 through 9 (4/sex/group/timepoint, with each animal being bled no more than 3 times), blood (approximately 1 ml) was drawn prior to being given the drug, and at approximately 2, 6, 8, 12 and 24 hours post-dosing. The vehicle-treated rats (group 6) were bled at approximately 8 and 24 hours post-dosing. The rats in groups 6 through 9 were similarly bled on Day 22 of the study, then euthanized. All blood was drawn into tubes containing EDTA to prevent coagulation, and placed on ice prior to analysis. The blood was assayed for the presence of AGN 194310 by gas chromatography/mass spectrometry.
AGN 194310 was systemically absorbed following oral administration to rats and approached the peak concentration in plasma (Cmax) at 2 or 6 hours post dosing (Tmax).

[2] = test system: Sprague-Dawley rats
Protocol: The drug was administered using a graduated syringe and a 20×3 inch animal feeding needle. Drug was given to each animal in a single dose per day.
Animals were weighed on the first day of the study and once per week thereafter, and the body weights recorded. The body weights were used for the dosage calculations. For all the Main Study and Recovery animals, food (Purina Certified Rodent Chow, meal form) was placed into tared glass jars and left in the animal cages. Jars were removed and weighed once weekly. Food was added to the jars when necessary. Food consumption was not recorded for the animals used in the toxicokinetic satellite studies.
Urine was collected from animals in the Main Study and Recovery groups during week 4 of the treatment period, and from Recovery group animals during week 4 of the recovery period. Urine was analyzed for: blood (hemoglobin and erythrocytes), bilirubin, color, glucose, ketones, leukocytes, microscopic evaluations of any urine sediment, […], pH, protein, specific gravity, transparency, and urobilinogen.
Animals were euthanized by inhalation of carbon dioxide. A complete necropsy was performed on all Main Study and Recovery group animals that died, or were euthanized due to moribund conditions, or were euthanized on scheduled sacrifice.

[3] = Excretion of the drug (separate experiment); assay type: in vivo; conditions: within 2 weeks following treatment
[4] = Stability to light; assay type: physicochemical
[5] = test system: Sprague-Dawley rats; test: Topical treatment of Sprague-Dawley rats with AGN 194310 cream for 28 days (Example 2); assay type: in vivo, rat
Protocol: Twenty-nine male and twenty-nine female Sprague-Dawley rats, approximately 7 weeks old were used for the study. Five rats/sex/group were designated as Main Study animals: (vehicle control, 0.025 mg/kg/day AGN 194310, and 0.25 mg/kg/day AGN 194310), and 7/sex/group designated as toxicokinetic satellite animals (0.025 mg/kg/day AGN 194310 and 0.25 mg/kglday AGN 194310). No “vehicle alone” control group was made for the toxicokinetic satellite animals. In this study there was no Recovery group.
The animals' backs were maintained shaven during the course of the study for application of the topical cream. The animals were treated daily with a topical formulation containing either AGN 194310 vehicle cream alone, 0.01% (w/w) AGN 194310 in the same vehicle cream, or 0.1% (w/w) AGN 194310 in the same vehicle cream. The vehicle cream consisted of a mixture of the following ingredients:
Daily dosages were calculated using the most recently obtained body weight, as shown below. The test or control creams were applied for 28 consecutive days to the shaved back of each animal in an area approximately equal to 35.5 cm^2. Application was made using a repeat pipettor, and the drug gently massaged into the skin. An Elizabethan collar was affixed around each animal's neck for a period of about 6 hours following treatment to prevent removal or systemic ingestion of the drug.
Blood was drawn at day 29 via cardiac puncture, as described in Example 1. The animals were first permitted to fast for approximately 16 hours prior to blood collection. Satellite animals were sacrificed on day 28.

[6] = test system: male cynomologus monkeys; test: Preliminary test of AGN 194310 in male cynomologus monkeys; assay type: in vivo, cynomologus monkey; conditions: 5 male cynomologus monkeys, daily dosage of 1.25 mg/kg
Text: Those of skill in the art will also recognize that both rats and monkeys are commonly used and accepted animal models for drug efficacy in humans.

For `CCc1ccc(C2=CC(C)(C)Sc3ccc(C#Cc4ccc(C(=O)O)cc4)cc32)cc1` [AGN 194310, 4-[[4-(4-ethylphenyl)-2,2-dimethyl-(2H)-thiochromen-6-yl]-ethynyl]-benzoic acid], the “systemic exposure to AGN 194310” value ([1]; across the concentrations of AGN 194310) was “dose dependent increase”, the Tmax ([1]; 0.005 mg/kg/day) was 2 h and the Tmax ([1]; 0.015 mg/kg/day) was 2 h. It also gave a Tmax ([1]; 0.15 mg/kg/day) of 6 h, a Cmax ([1]; 0.005 mg/kg/day, 0.001% AGN 194310 (0.005 mg/kg/day), Day 7, mean ± SD) of 1.83 ± 0.55 ng/mL and a Cmax ([1]; 0.005 mg/kg/day, 0.001% AGN 194310 (0.005 mg/kg/day), Day 22, mean ± SD) of 1.97 ± 0.75 ng/mL. For the same molecule, the AUC(0-t) ([1]; 0.005 mg/kg/day, Day 7, mean ± SEM) was 19.6 ± 1.1 ng·h/mL, the AUC(0-t) ([1]; 0.005 mg/kg/day, Day 22, mean ± SEM) was 20.8 ± 1.1 ng·h/mL and the Cmax ([1]; 0.015 mg/kg/day, 0.003% AGN 194310 (0.015 mg/kg/day), Day 7, mean ± SD) was 4.73 ± 1.2 ng/mL. It also gave a Cmax ([1]; 0.015 mg/kg/day, 0.003% AGN 194310 (0.015 mg/kg/day), Day 22, mean ± SD) of 5.32 ± 1.56 ng/mL, an AUC(0-t) ([1]; 0.015 mg/kg/day, Day 7, mean ± SEM) of 57.6 ± 2.6 ng·h/mL and an AUC(0-t) ([1]; 0.015 mg/kg/day, Day 22, mean ± SEM) of 63.6 ± 2.7 ng·h/mL. The Cmax ([1]; 0.15 mg/kg/day, 0.01% AGN 194310 (0.15 mg/kg/day), Day 7, mean ± SD) was 43.1 ± 7.2 ng/mL, the Cmax ([1]; 0.15 mg/kg/day, 0.01% AGN 194310 (0.15 mg/kg/day), Day 22, mean ± SD) was 42.4 ± 9.3 ng/mL and the AUC(0-t) ([1]; 0.15 mg/kg/day, Day 7, mean ± SEM) was 668 ± 24 ng·h/mL. For the same molecule, the AUC(0-t) ([1]; 0.15 mg/kg/day, Day 22, mean ± SEM) was 675 ± 25 ng·h/mL, the urinalysis parameters ([2]; rat, in vivo, po) was “no apparent treatment-related effects” and the treatment-related deaths ([2]; rats, oral, 0.005-0.15 mg/kg/day, course of the study) was “No treatment-related deaths”. For the same molecule, the postmortem pathological examination ([2]; rats, oral, end of the treatment period) was “no noticeable differences”, the drug excreted [3] was 88% and the “stability to normal light” value [4] was “relatively stable to normal light”. For the same molecule, the “germ cells in the head of the epididymis” value ([5]; majority of males displaying spermatogenic arrest, topical) was “notable reduction of germ cells”, the “hematological differences versus control rats” value ([5]; male rats in all groups, topical) was “no statistically significant hematological differences” and the treatment-related skin irritation ([5]; rats, topical skin application, 0.025 and 0.25 mg/kg/day, 28 days) was “did not result in any evidence of treatment-related skin irritation”. For the same molecule, the “clinical observations, body weight, food consumption, gross pathology” value ([5]; rats, topical, 0.025 and 0.25 mg/kg/day, 28 days) was “No treatment-related clinical observations, differences in body weight, differences in food consumption, or in gross pathology were observed”, the “male rats with atrophy of the seminiferous tubules with concomitant spermatogenic arrest” value ([5]; topical 0.025 mg/kg/day, 28 days) was 0 out of 5 and the “male rats with atrophy of the seminiferous tubules with concomitant spermatogenic arrest” value ([5]; topical 0.25 mg/kg/day, 28 days) was 5 out of 5. For the same molecule, the “inhibition or arrest of spermatogenesis” value [6] was “did not result in inhibition or arrest of spermatogenesis”.
